For test [1], the system named is sonic hedgehog pathway. Nature of the test: Hedgehog reporter assay (gli-luciferase) in TM3 cells. It is filed as cell-based, mouse. The note with it: TM3 mouse Leydig cells, gli-luciferase reporter; read-out: TM3 Avg. EC50. An excerpt: (§1) Mouse (TM3: mouse Leydig cells; S12: mouse embryonic mesenchymal cells) and human (Daoy: human medulloblastoma cell; HepM: human embryonic palatal mesenchymal cell) cell lines are used to screen small molecules for their ability to modulate the activity of the sonic hedgehog pathway (Table 1, Table 2, and Table 3). Stable hedgehog pathway reporter cell lines are established by specific antibiotic selection following transfection of a reporter plasmid containing a luciferase gene located directly downstream from the gli promoter. Consequently, any observable changes in cellular luciferase activity may be attributed to changes in sonic hedgehog pathway activity in mouse and human cells, respectively, since gli is the major by-product of this pathway. To calculate activity, we generate an eleven point dose curve for each compound using 1:3 dilutions in 96 well assay plates. Each plate tested also contains low and high control to establish maximal pathway activation so to establish/compare a percentage activation of each tested compound (AMAX) on respective plates.
(§2) Stable hedgehog pathway reporter cell lines are established following specific antibiotic selection following transfection of a reporter plasmid
(§3) In short, typically cells are plated in MicroTiter-plates at 10,000-20,000 cells per well, in growth media (containing 10%-20% FBS). After 48-72 hrs (HGL and DGL respectively) the media in the assay plates is switched to low-serum containing media (0.5% FBS). At that time compounds are added (at 1-5 μM) to the assay plates, in the presence or absence of hedgehog protein (octyl-modified version; 1-5 ng/ml). After another 24 hrs of incubation, the media from the assay plates is discarded and replaced with luciferase assay-mix. Subsequently, plates are incubated at RT for ˜15-30 mins and then read in a luminometer. [note: addition of the Hedgehog protein, although not critical, will sensitize the assay allowing the identification of weak actives].

The subject of test [2] is sonic hedgehog pathway. The test can be described thus: Human hedgehog reporter assay Daoy-GliLuc (DGL). It counts as cell-based. The note with it: for pEC50: Daoy human medulloblastoma cells, gli-luciferase reporter.
Description: as §1, §2, §3
(In general: In a reporter assay the amount or activity of a reporter protein is the signal.)

For test [3], the system named is sonic hedgehog pathway. The test can be described thus: Human hedgehog reporter assay HEPM-GliLuc (HGL). It counts as cell-based. The note with it: HepM human embryonic palatal mesenchymal cells, gli-luciferase reporter; read-out: HEPM Avg. EC50.
Description: as §1, §2, §3

The test system of test [4] is sonic hedgehog pathway. Nature of the test: Hedgehog reporter assay (gli-luciferase) in S12 cells. The note with it: S12 mouse embryonic mesenchymal cells, read-out: Mouse S12 Avg. EC50. It is filed as cell-based.
Description: as §1, with “respective plates. Also we calculate EC50 values, or a concentration where the pathway will be exactly 50% activated, for each tested compound to determine potency. In these cell lines, compounds that register >20% AMAX values are considered active.” for “respective plates.”
as §2, §3

Where [5] appears, read: read-out: Human Daoy (Gli-Luc) Avg. EC50.

Each structure is given as a SMILES string. pEC50: −log10 of the molar value. Where a name gives a salt, the structure may show the parent alone.

As usually defined, the pEC50 is the EC50 on a negative log10 scale, so that one unit is a factor of ten. In the case of `CNC1CCC(N(Cc2cc(-c3cncnc3)ccc2OC)C(=O)c2sc3c(F)ccc(F)c3c2Cl)CC1` (centres unmarked) [Compound 343 (R15), 3-Chloro-4,7-difluoro-benzo[b]thiophene-2-carboxylic acid(2-methoxy-5-pyrimidin-5-yl-benzyl)-(4-methylamino-cyclohexyl)-amide dihydrochloride], the pEC50 in the test on sonic hedgehog pathway [1], in the test with sonic hedgehog pathway [2] (read-out: Daoy Avg. EC50) and in the test on sonic hedgehog pathway [3] was more than 7.30 each time.
On to `CNC1CCC(N(Cc2cc(-c3cnccn3)ccc2OC)C(=O)c2sc3c(F)ccc(F)c3c2Cl)CC1` (centres unmarked) [Compound 344 (R14), 3-Chloro-4,7-difluoro-benzo[b]thiophene-2-carboxylic acid(2-methoxy-5-pyrazin-2-yl-benzyl)-(4-methylamino-cyclohexyl)-amide dihydrochloride], for which the pEC50 with sonic hedgehog pathway [1], with sonic hedgehog pathway [2] (read-out: Daoy Avg. EC50) and in the test on sonic hedgehog pathway [3] was more than 7.30 each time.
Take `CN[C@H]1CC[C@@H](N(Cc2cc(-c3ccnc(C)c3)ccc2OC)C(=O)C2=C(Cl)c3c(F)ccc(C)c3C2)CC1` [Compound 345, 3-Chloro-4,7-difluoro-benzo[b]thiophene-2-carboxylic acid[2-methoxy-5-(2-methyl-pyridin-4-yl)-benzyl]-(4-methylamino-cyclohexyl)-amide dihydrochloride]: the pEC50 in the test on sonic hedgehog pathway [1], in the test with sonic hedgehog pathway [2] (read-out: Daoy Avg. EC50) and with sonic hedgehog pathway [3] was more than 7.30 in each case.
For the molecule `CNC1CCC(N(Cc2cc(-c3ccc(N(C)C=O)cc3)ccc2OC)C(=O)c2sc3cccc(F)c3c2Cl)CC1` (centres unmarked) [Compound 347, 3-Chloro-4-fluoro-benzo[b]thiophene-2-carboxylic acid[4′-(formyl-methyl-amino)-4-methoxy-biphenyl-3-ylmethyl]-(4-methylamino-cyclohexyl)-amide trifluoroacetate], the pEC50 with sonic hedgehog pathway [1], in the test on sonic hedgehog pathway [2] (read-out: Daoy Avg. EC50) and in the test with sonic hedgehog pathway [3] was more than 7.30 in each case.
Consider `CNC1CCC(N(Cc2cc(-c3ccc(C(=O)C(F)(F)F)cc3)ccc2OC)C(=O)c2sc3c(F)ccc(F)c3c2Cl)CC1` (centres unmarked) [Compound 349, 3-Chloro-4,7-difluoro-benzo[b]thiophene-2-carboxylic acid[4-methoxy-4′-(2,2,2-trifluoro-acetyl)-biphenyl-3-ylmethyl]-(4-methylamino-cyclohexyl)-amide trifluoroacetate], for which the negative logarithm of the EC50 (pEC50) in the test on sonic hedgehog pathway [1], in the test with sonic hedgehog pathway [2] (read-out: Daoy Avg. EC50) and with sonic hedgehog pathway [3] was more than 7.30 each time.
For `CNC1CCC(N(Cc2cc(-c3cc(C)cc(C)c3)ccc2OC)C(=O)C2=C(Cl)c3c(C)ccc(F)c3C2)CC1` (centres unmarked) [Compound 350, 3-Chloro-4,7-difluoro-benzo[b]thiophene-2-carboxylic acid[5-(2,6-dimethyl-pyridin-4-yl)-2-methoxy-benzyl]-(4-methylamino-cyclohexyl)-amide dihydrochloride], the pEC50 was more than 7.30 with sonic hedgehog pathway [1], more than 7.30 with sonic hedgehog pathway [2] (read-out: Daoy Avg. EC50) and 6.60 to 7.30 with sonic hedgehog pathway [3].
As for `CNC1CCC(N(Cc2cc(-c3ccc(N)nc3)ccc2OC)C(=O)c2sc3c(F)ccc(F)c3c2Cl)CC1` (centres unmarked) [Compound 352 (R18), 3-Chloro-4,7-difluoro-benzo[b]thiophene-2-carboxylic acid[5-(6-amino-pyridin-3-yl)-2-methoxy-benzyl]-(4-methylamino-cyclohexyl)-amide dihydrochloride], the negative-log EC50 (pEC50) with sonic hedgehog pathway [1], with sonic hedgehog pathway [2] (read-out: Daoy Avg. EC50) and with sonic hedgehog pathway [3] was more than 7.30 throughout.
For the molecule `CN[C@H]1CC[C@@H](N(Cc2cc(-c3ccnc(N(C)C)c3)ccc2OC)C(=O)c2sc3c(C)ccc(C)c3c2Cl)CC1` [Compound 358, 3-Chloro-4,7-difluoro-benzo[b]thiophene-2-carboxylic acid[5-(2-dimethylamino-pyridin-4-yl)-2-methoxy-benzyl]-(4-methylamino-cyclohexyl)-amide dihydrochloride], the negative-log EC50 (pEC50) in the test with sonic hedgehog pathway [1], in the test with sonic hedgehog pathway [2] (read-out: Daoy Avg. EC50) and in the test on sonic hedgehog pathway [3] was more than 7.30 each time.
With `CNC1CCC(N(Cc2cc(-c3ccc(CS(C)(=O)=O)cc3)ccc2OC)C(=O)c2sc3c(F)ccc(F)c3c2Cl)CC1` (centres unmarked) [Compound 369, 3-Chloro-4,7-difluoro-benzo[b]thiophene-2-carboxylic acid(4′-methanesulfonylmethyl-4-methoxy-biphenyl-3-ylmethyl)-(4-methylamino-cyclohexyl)-amide hydrochloride], the pEC50 in the test with sonic hedgehog pathway [4] and with sonic hedgehog pathway [2] (setting [5]) was more than 7.30 in each case.
What is called EC50 is the concentration that produces a half-maximal response. In the case of `CNC1CCC(N(Cc2cc(-c3ccc(NS(C)(=O)=O)cc3)ccc2OC)C(=O)c2sc3c(F)ccc(F)c3c2Cl)CC1` (centres unmarked) [Compound 370, 3-Chloro-4,7-difluoro-benzo[b]thiophene-2-carboxylic acid (4′-methanesulfonylamino-4-methoxy-biphenyl-3-ylmethyl)-(4-methylamino-cyclohexyl)-amide hydrochloride], in the test with sonic hedgehog pathway [4], the pEC50 was more than 7.30. For the same molecule, the EC50 with sonic hedgehog pathway [2] (Homo sapiens, Daoy, read-out: Human Daoy (Gli-Luc) Avg. EC50 (nM)) was less than 50 nM.
Turning to `CNC1CCC(N(Cc2cc(-c3ccc(N(C)S(C)(=O)=O)cc3)ccc2OC)C(=O)c2sc3c(F)ccc(F)c3c2Cl)CC1` (centres unmarked) [Compound 371, 3-Chloro-4,7-difluoro-benzo[b]thiophene-2-carboxylic acid[4′-(methanesulfonyl-methyl-amino)-4-methoxy-biphenyl-3-ylmethyl]-(4-methylamino-cyclohexyl)-amide hydrochloride], the negative logarithm of the EC50 (pEC50) with sonic hedgehog pathway [4] and in the test with sonic hedgehog pathway [2] (setting [5]) was more than 7.30 in each case.
`CNC1CCC(N(Cc2cc(-c3cc[n+]([O-])cc3)ccc2OC)C(=O)c2sc3c(F)ccc(F)c3c2Cl)CC1` (centres unmarked) [Compound 374, 4-(3-((3-chloro-4,7-difluoro-N-((1s,4s)-4-(methylamino)cyclohexyl)benzo[b]thiophene-2-carboxamido)methyl)-4-methoxyphenyl)pyridine 1-oxide]: the pEC50 in the test on sonic hedgehog pathway [4] and in the test on sonic hedgehog pathway [2] (setting [5]) was more than 7.30 in each case.
With `CN[C@H]1CC[C@H](N(Cc2cc(-c3cccnc3F)ccc2OC)C(=O)c2sc3c(F)ccc(F)c3c2Cl)CC1` [Compound 378, 3-Chloro-4,7-difluoro-benzo[b]thiophene-2-carboxylic acid[5-(2-fluoro-pyridin-3-yl)-2-methoxy-benzyl]-(4-methylamino-cyclohexyl)-amide], the negative logarithm of the EC50 (pEC50) with sonic hedgehog pathway [4] and in the test on sonic hedgehog pathway [2] (setting [5]) was more than 7.30 in each case.
In the case of `CN[C@H]1CC[C@H](N(Cc2cc(-c3ccc(F)nc3)ccc2OC)C(=O)c2sc3c(F)ccc(F)c3c2Cl)CC1` [Compound 379, 3-Chloro-4,7-difluoro-benzo[b]thiophene-2-carboxylic acid[5-(6-fluoro-pyridin-3-yl)-2-methoxy-benzyl]-(4-methylamino-cyclohexyl)-amide], the pEC50 with sonic hedgehog pathway [4] and with sonic hedgehog pathway [2] (setting [5]) was more than 7.30 throughout.
In the case of `CN[C@H]1CC[C@H](N(Cc2cc(-c3cncc(F)c3)ccc2OC)C(=O)c2sc3c(F)ccc(F)c3c2Cl)CC1` [Compound 380, 3-Chloro-4,7-difluoro-benzo[b]thiophene-2-carboxylic acid[5-(5-fluoro-pyridin-3-yl)-2-methoxy-benzyl]-(4-methylamino-cyclohexyl)-amide], the pEC50 in the test with sonic hedgehog pathway [4] and in the test on sonic hedgehog pathway [2] (setting [5]) was more than 7.30 throughout.
For `CN[C@H]1CC[C@H](N(Cc2cc(-c3cccnc3F)ccc2OC)C(=O)c2sc3cccc(F)c3c2Cl)CC1` [Compound 381], the pEC50 in the test on sonic hedgehog pathway [4] and with sonic hedgehog pathway [2] (setting [5]) was more than 7.30 each time.
On to `CN[C@H]1CC[C@H](N(Cc2cc(-c3ccc(F)nc3)ccc2OC)C(=O)c2sc3cccc(F)c3c2Cl)CC1` [Compound 382, 3-Chloro-4-fluoro-benzo[b]thiophene-2-carboxylic acid[5-(6-fluoro-pyridin-3-yl)-2-methoxy-benzyl]-(4-methylamino-cyclohexyl)-amide], for which the pEC50 in the test with sonic hedgehog pathway [4] and in the test with sonic hedgehog pathway [2] (setting [5]) was more than 7.30 each time.
As for `CN[C@H]1CC[C@H](N(Cc2cc(-c3cncc(F)c3)ccc2OC)C(=O)c2sc3cccc(F)c3c2Cl)CC1` [Compound 383, 3-chloro-4-fluoro-N-(5-(5-fluoropyridin-3-yl)-2-methoxybenzyl)-N-((1s,4s)-4-(methylamino)cyclohexyl)benzo[b]thiophene-2-carboxamide], the negative-log EC50 (pEC50) with sonic hedgehog pathway [4] and in the test on sonic hedgehog pathway [2] (setting [5]) was more than 7.30 each time.

Values taken from US20120245184A1 (Aderans Research Institute, Inc., priority 2006, published 2012).
